Results taken from patent US20100048611A1, “TETRAHYDROPYRROLOPYRIDINE, TETRAHYDROPYRAZOLOPYRIDINE, TETRAHYDRO-IMIDAZOPYRIDINE AND TETRAHYDROTRIAZOLOPYRIDINE DERIVATIVES AND USE THEREOF” (Bayer Healthcare AG, priority 2006, published 2010).

Target: human factor Xa (FXa) (Homo sapiens, UniProt P00742)
Experiment: Determination of the factor Xa inhibition (chromogenic substrate)
Assay type: biochemical
Conditions: chromogenic substrate Pefachrome FXa, 25° C., extinction at 405 nm
Protocol: a.1) Determination of the Factor Xa Inhibition:
The enzymatic activity of human factor Xa (FXa) is measured using the conversion of a chromogenic substrate specific for FXa. Factor Xa cleaves p-nitroaniline from the chromogenic substrate. The determinations are carried out in microtitre plates as follows:
The test substances, in various concentrations, are dissolved in DMSO and incubated for 10 minutes at 25° C. with human FXa ([…] dissolved in 50 mmol of Tris buffer [C,C,C-tris(hydroxymethyl)aminomethane], 150 mmol/l of NaCl, 0.1% BSA [bovine serum albumin], pH=8.3). Pure DMSO is used as control. The chromogenic substrate (150 μmol/l of Pefachrome® FXa from Pentapharm) is then added. After an incubation time of 20 minutes at 25° C., the extinction at 405 nm is determined.

Chain of human factor Xa (FXa) (P00742 235-488 limits assumed): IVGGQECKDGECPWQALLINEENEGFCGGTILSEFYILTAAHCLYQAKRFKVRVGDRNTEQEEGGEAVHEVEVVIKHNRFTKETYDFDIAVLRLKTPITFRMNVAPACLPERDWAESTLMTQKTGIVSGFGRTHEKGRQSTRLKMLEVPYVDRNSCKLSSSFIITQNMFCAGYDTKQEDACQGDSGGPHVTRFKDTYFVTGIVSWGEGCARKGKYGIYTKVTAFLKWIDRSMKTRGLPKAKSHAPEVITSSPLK
Chain of human factor Xa (FXa) (P00742 41-179 partner limits assumed): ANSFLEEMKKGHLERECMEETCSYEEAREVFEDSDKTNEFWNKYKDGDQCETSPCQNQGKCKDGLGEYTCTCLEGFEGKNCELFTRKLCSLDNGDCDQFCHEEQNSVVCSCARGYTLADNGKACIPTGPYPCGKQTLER

IC50: 0.8 nM
Compound: COc1ccc(-n2nc(C(N)=O)c3c2C(=O)N(c2ccc(N4CCOC4=N)cc2)CC3)cc1 [Example 1, 6-[4-(2-Imino-1,3-oxazolidin-3-yl)phenyl]-1-(4-methoxyphenyl)-7-oxo-4,5,6,7-tetrahydro-1H-pyrazolo[3,4-c]pyridine-3-carboxamide methanesulphonate]
